Data from patent publication US20130295173A1, “COMPOSITIONS OF STATINS AND OMEGA-3 FATTY ACIDS” (OMTHERA PHARMACEUTICALS, INC., priority 2012, published 2013).
Each block holds one compound with its values, some of them ahead of it.

Columns and labels:
[1] = Stability testing of statins dissolved in PUFA free acid solvent system; type: physicochemical; details: 25° C., 60% RH; for Statin in Oil: PUFA free acid solvent system; for Statin in Oil, Percent: share of total statin
Experimental: The compositions were then mixed until full dissolution was observed, using a magnetic stir bar and sonication for 30-60 second intervals, taking care to maintain a nitrogen headspace over the solution throughout processing. […] Vials were covered with foil to protect from light and stored at 25° C., 60% RH. One vial of each of the three compositions was retrieved at each timepoint for testing. Procedures as listed in the USP Monograph for Omega-3-Acid Ethyl Ester Capsules were followed for measuring quantities of acid value, peroxide value, and absorbance for fats and fixed oils.

[2] = Comparison of solubility of statins in PUFA free acid solvent system and Lovaza ethyl ester solvent system, HPLC assay of supernatant
Experimental: For this study, ten vials were prepared such that 5 vials contained 2 mL of Lovaza oil and 5 vials contained 2 mL of PUFA free acid solvent system. About 20 mg of each statin were added to one Lovaza oil vial and to one PUFA free acid solvent system vial. Vials containing the samples were blanketed with nitrogen, then sealed. The vials were then sonicated for 1 hour or until contents appeared clear. After sonication, vials which remained clear received additional 20 mg aliquots of their respective statin and were again blanketed with nitrogen. […] The samples were centrifuged and the supernatant was assayed for the respective statin by HPLC.

[3] = Solubility of statins in various pH buffers
[4] = Initial solubility of statins in PUFA free acid solvent system (batch #37225); type: physicochemical

- Statin in Oil ([1]; t = 0): 8.738 mg/g
- Statin in Oil, Percent ([1]; t = 0): 100%
- Statin in Oil ([1]; t = 1 week): 8.275 mg/g
- Statin in Oil, Percent ([1]; t = 1 week): 100%
- Statin in Oil ([1]; t = 2 week): 7.839 mg/g
- Statin in Oil, Percent ([1]; t = 2 week): 100%
Structure (SMILES): CC(C)c1c(C(=O)Nc2ccccc2)c(-c2ccccc2)c(-c2ccc(F)cc2)n1CC[C@@H](O)C[C@@H](O)CC(=O)[O-].CC(C)c1c(C(=O)Nc2ccccc2)c(-c2ccccc2)c(-c2ccc(F)cc2)n1CC[C@@H](O)C[C@@H](O)CC(=O)[O-].[Ca+2] [Atorvastatin Calcium, atorvastatin calcium]

- Solubility in Lovaza (ethyl ester) Solvent System [2]: 0.615 mg/g
- Solubility in PUFA Free Acid Solvent System [2]: 12.771 mg/g
Structure (SMILES): O=C([O-])C[C@H](O)C[C@H](O)/C=C/c1c(C2CC2)nc2ccccc2c1-c1ccc(F)cc1.O=C([O-])C[C@H](O)C[C@H](O)/C=C/c1c(C2CC2)nc2ccccc2c1-c1ccc(F)cc1.[Ca+2] [Pitavastatin Calcium, pitavastatin calcium]

- Solubility in Lovaza (ethyl ester) Solvent System [2]: 0.000 mg/g
- Solubility in PUFA Free Acid Solvent System [2]: 42.357 mg/g
- Appearance of vial after sonication ([2]; PUFA free acid solvent, 2 mL, after the addition of about 313 mg): still remained clear
Structure (SMILES): CC[C@H](C)C(=O)O[C@H]1C[C@H](O)C=C2C=C[C@H](C)[C@H](CC[C@@H](O)C[C@@H](O)CC(=O)O)[C@H]21 [Pravastatin Sodium, pravastatin sodium]

- Solubility in Lovaza (ethyl ester) Solvent System [2]: 0.001 mg/g
- Solubility in PUFA Free Acid Solvent System [2]: 12.700 mg/g
- Solubility ([3]; 0.1N HCl (pH 1.2), T = 0): 0.223
- Solubility ([3]; 0.1N HCl (pH 1.2), T = 1 Week): 0.104
- Solubility ([3]; 0.1N NaOH, T = 0): 8.058
- Solubility ([3]; 0.1N NaOH, T = 1 Week): 0.018
- Solubility ([3]; Water, T = 0 (after sitting overnight)): 7.08
- Solubility ([3]; Water, T = 1 Week): 8.822
- pH of maximal solubility ([3]; aqueous pH buffers): ~7.0
- Aqueous solubility (in words) ([3]; overall across aqueous solutions, rosuvastatin at time zero): significant aqueous solubility
- Solubility ([3]; pH 2.2 acid phthalate buffer, T = 0): 0.773
- Solubility ([3]; pH 2.2 acid phthalate buffer, T = 1 Week): 9.343
- Solubility ([3]; pH 4.0 acid phthalate buffer, T = 0): 1.901
- Solubility ([3]; pH 4.0 acid phthalate buffer, T = 1 Week): 0.002
- Solubility ([3]; pH 5.0 neutralized phthalate buffer, T = 0): 4.188
- Solubility ([3]; pH 5.0 neutralized phthalate buffer, T = 1 Week): 4.790
- Solubility ([3]; pH 7.0 phosphate buffer, T = 0): 7.963
- Solubility ([3]; pH 7.0 phosphate buffer, T = 1 Week): 10.654
- Solubility ([3]; pH 9.0 alkaline borate buffer, T = 0): 4.571
- Solubility ([3]; pH 9.0 alkaline borate buffer, T = 1 Week): 4.712
- Initial solubility in PUFA free acid solvent system, Concentration [4]: 12.70 mg/mL
- Statin in Oil ([1]; t = 0): 6.481 mg/g
- Statin in Oil, Percent ([1]; t = 0): 100%
- Statin in Oil ([1]; t = 1 week): 6.416 mg/g
- Statin in Oil, Percent ([1]; t = 1 week): 100%
- Statin in Oil ([1]; t = 2 week): 6.505 mg/g
- Statin in Oil, Percent ([1]; t = 2 week): 100%
Structure (SMILES): CC(C)c1nc(N(C)S(C)(=O)=O)nc(-c2ccc(F)cc2)c1/C=C/[C@@H](O)C[C@@H](O)CC(=O)[O-].CC(C)c1nc(N(C)S(C)(=O)=O)nc(-c2ccc(F)cc2)c1/C=C/[C@@H](O)C[C@@H](O)CC(=O)[O-].[Ca+2] [Rosuvastatin Calcium, rosuvastatin calcium]
